# What was measured:
# [1] = tested on: subjects with mild-to-moderate Alzheimer's disease; test: Phase 2a Clinical Study A: ADAS-cog (13-item) total score; format: in vivo, human
# Experimental: (§1) A Phase 2a proof-of-concept (POC) study in subjects with mild-to-moderate dementia of Alzheimer type was conducted. The study was a randomized, double-blind, placebo- and active-controlled, multicenter study designed to evaluate the efficacy and safety of Compound A (ABT-126) in subjects diagnosed with mild-to-moderate Alzheimer's disease, defined as meeting National Institute of Neurological and Communicative Disorders and Stroke/Alzheimer's Disease and Related Disorders Association (NINCDS/ADRDA) criteria for probable AD. […] Subjects were randomized in an equal ratio to one of four treatment groups (placebo, 5 mg Compound A, 25 mg Compound A, or donepezil) for a 12-week treatment period. The primary efficacy measure was the Alzheimer's Disease Assessment Scale—cognitive subscale (ADAS-Cog). Subjects were generally in good health and any chronic medical conditions were stable during the time of screening. Subjects were not taking other medication for Alzheimer's disease.
# (§2) The study was a Phase 2, randomized, double-blind, placebo- and active-controlled, multicenter study designed to evaluate the dose-response relationship and safety of two doses of Compound A in subjects diagnosed with mild to moderate AD, defined as meeting NINCDS/ADRDA criteria for probable AD.
# (§3) The study consisted of a Screening Period of up to 28 days, a 12-week treatment period, and a post-treatment period. The screening period consisted of three visits: Screening Visit 1, Screening Visit 2, and Day −1. Upon completion of Day −1 procedures, eligible subjects were randomized through an Interactive Voice Response/Interactive Web-Based (IVR/IWB) system. Subjects were randomized in an equal ratio to one of four treatment groups (placebo, 5 mg Compound A, 25 mg Compound A, or donepezil).
# (§4) Each subject was instructed to take study drug once-daily in the morning for 12 weeks. Subjects randomized to donepezil took 5 mg donepezil QD for the first 4 weeks and began 10 mg donepezil QD at Week 4 through the remainder of the study. The subject and investigator were blinded to the treatment assignment throughout the study.
# (§5) The primary efficacy measure was the Alzheimer's Disease Assessment Scale-cognitive subscale (ADAS-cog). The ADAS-cog was designed to assess the cognitive impairments most common in AD. The ADAS-cog is a subscale of the ADAS, which focuses on cognitive functioning and memory. Two versions were used in the study: an 11-item version and an expanded (13-item) version. The 11-item version of the ADAS-cog was the primary endpoint measure in this study. ADAS-Cog (13-item) was administered throughout the study and the primary efficacy variable was considered the change from baseline to final evaluation on the ADAS-cog total score (11-item).
# The 13-item ADAS-cog is comprised of the 11-item ADAS-cog with two additional items (Delayed Word Recall and a Number Cancellation Test) that are designed to assess attention and concentration. The Delayed Word Recall Test (range from 0 to 10) was an addition to the Word Recall Test to enhance sensitivity of the instrument in assessing cognition functioning on patients with mild AD. The Number Cancellation Test (range from 0 to 5) was reliable and sensitive to a broad range of dementia severity, and was recommended as a useful addition to the 11-item ADAS-cog. The total score of the 13-item ADAS-cog ranges from 0 to 85, with a higher score representing greater impairment. The ADAS-cog (13-item) was administered by a certified rater at Screening Visit 1, Screening Visit 2, and Day-1, as well as Weeks 4, 8, and 12 during the study.
# [2] = tested on: subjects with mild-to-moderate Alzheimer's disease; test: Phase 2a Clinical Study A: ADAS-cog (11-item) total score; format: in vivo, human
# Experimental: as §1, §2, §3, §4
# Subjects completed 4 visits during the treatment period at Week 2, Week 4, Week 8 and Week 12. Subjects returned to the study site for a follow-up visit approximately 2 weeks after the Week 12 or premature discontinuation visit for a safety evaluation. In addition, study site personnel contacted each subject's caregiver by telephone approximately 30 days after the subject's last dose of study drug to ascertain the subject's safety status.
# as §5
# The 11-item ADAS-cog includes the following tests: Word Recall, Commands, Constructional Praxis, Naming Objects and Fingers, Ideational Praxis, Orientation, Word Recognition, Remembering Test Instructions, Comprehension of Spoken Language, Spoken Language Ability, and Word Finding Difficulty. The total score of the 11-item ADAS-cog ranges from 0 to 70, with a higher score representing greater impairment.
# The primary efficacy variable was the change from baseline to the final observation on the ADAS-cog (11-item) total score. The primary efficacy analysis was carried out using an ANCOVA model with treatment and study site as the main effects and baseline score as the covariate. […]
# [3] = donepezil 5 mg QD first 4 weeks then 10 mg QD, ANCOVA, baseline to final evaluation
# [4] = donepezil 5 mg QD first 4 weeks then 10 mg QD, Change to Week 8
# [5] = donepezil 5 mg QD first 4 weeks then 10 mg QD, Change to Week 12
# [6] = donepezil 5 mg QD first 4 weeks then 10 mg QD, MMRM, Week 8
# [7] = donepezil 5 mg QD first 4 weeks then 10 mg QD, MMRM, Week 12
# [8] = donepezil 5 mg QD first 4 weeks then 10 mg QD, final evaluation, 12-week treatment
# [9] = donepezil 5 mg QD, Change to Week 4
# [10] = donepezil 5 mg QD, MMRM, Week 4
structure (smiles),measurement,setting,value
"COc1cc2c(cc1OC)C(=O)C(CC1CCN(Cc3ccccc3)CC1)C2 (stereo not shown) [Donepezil, donepezil, reference compound]",ADAS-cog (13-Item) Total Score Difference From Placebo LS Mean (SE) of Difference,[1]; [3],−2.49 (1.04)
same,ADAS-cog (13-Item) Total Score LS Mean (SE) of Change,[1]; [3],−3.27 (0.74)
same,ADAS-cog (13-Item) Total Score Observed Mean (SD) change,[1]; [4],−2.66 (5.48)
same,ADAS-cog (13-Item) Total Score Observed Mean (SD) change,[1]; [5],−4.17 (4.94)
same,ADAS-cog (13-Item) Total Score Difference From Placebo LS Mean (SE) of Difference,[1]; [6],−1.85 (0.98)
same,ADAS-cog (13-Item) Total Score LS Mean (SE) of Change from Baseline,[1]; [6],−2.20 (0.70)
same,ADAS-cog (13-Item) Total Score Difference From Placebo LS Mean (SE) of Difference,[1]; [7],−2.48 (1.06)
same,ADAS-cog (13-Item) Total Score LS Mean (SE) of Change from Baseline,[1]; [7],−3.61 (0.76)
same,ADAS-cog (13-Item) Total Score Observed Mean (SD) Final,[1]; [8],33.90 (13.37)
same,ADAS-cog (13-Item) Total Score Observed Mean (SD) change,[1]; [9],−1.84 (3.94)
same,ADAS-cog (13-Item) Total Score Difference From Placebo LS Mean (SE) of Difference,[1]; [10],−1.53 (0.74)
same,ADAS-cog (13-Item) Total Score LS Mean (SE) of Change from Baseline,[1]; [10],−1.53 (0.53)
same,ADAS-cog (11-Item) Total Score Difference From Placebo LS Mean (SE) of Difference,[2]; [3],−1.43
same,ADAS-cog (11-Item) Total Score LS Mean (SE) of Change,[2]; [3],−2.11 (0.65)
same,ADAS-cog (11-Item) Total Score Observed Mean (SD) change,[2]; [4],−1.69 (4.96)
same,ADAS-cog (11-Item) Total Score Observed Mean (SD) change,[2]; [5],−2.91 (4.76)
same,ADAS-cog (11-Item) Total Score Difference From Placebo LS Mean (SE) of Difference,[2]; [6],−0.70 (0.83)
same,ADAS-cog (11-Item) Total Score LS Mean (SE) of Change from Baseline,[2]; [6],−1.26 (0.59)
same,ADAS-cog (11-Item) Total Score Difference From Placebo LS Mean (SE) of Difference,[2]; [7],−1.57 (0.91)
same,ADAS-cog (11-Item) Total Score LS Mean (SE) of Change from Baseline,[2]; [7],−2.40 (0.65)
same,ADAS-cog (11-Item) Total Score Observed Mean (SD) Final,[2]; [8],23.21 (11.53)
same,ADAS-cog (11-Item) Total Score Observed Mean (SD) change,[2]; [9],−1.04 (3.53)
same,ADAS-cog (11-Item) Total Score Difference From Placebo LS Mean (SE) of Difference,[2]; [10],−0.68 (0.65)
same,ADAS-cog (11-Item) Total Score LS Mean (SE) of Change from Baseline,[2]; [10],−0.78 (0.47)
same,"cognition relative to placebo, ADAS-cog (11-item) MMRM (in words)",[2]; donepezil treatment group,cognitive improvement relative to placebo

# — patent US8802693B1, “Azaadamantane derivatives and methods of use” (priority 2011, dated 2014)
